{"source": "paper PMC7264150", "about": "(Nature Communications, 2020)", "molecular_target": "T1, Pl-TcdA1 (Photorhabdus luminescens, UniProt Q9RN43)", "T1 construct": "gene tcdA", "format": "binding", "data": [{"smiles": "CC(=O)N[C@H]1C(O)O[C@H](CO)[C@@H](O[C@@H]2O[C@H](CO)[C@H](O)[C@H](O)[C@H]2O[C@@H]2O[C@@H](C)[C@@H](O)[C@@H](O)[C@@H]2O)[C@@H]1O[C@@H]1O[C@@H](C)[C@@H](O)[C@@H](O)[C@@H]1O", "note": "(stereo partly shown) [Lewis Y]", "values": [{"measurement": "glycan microarray, AlexaFluor488-labelled toxin", "result": "tetrasaccharides Lewis Y and sialyl-Lewis X interacted strongly with Pl-TcdA1"}]}]}
